A word on the viability: it is a read-out of living cells in per cent, often relative to untreated cells.

The source of these data is article PMC6801739, “Antitumor Activity of a Novel Tyrosine Kinase Inhibitor AIU2001 Due to Abrogation of the DNA Damage Repair in Non-Small Cell Lung Cancer Cells” (International Journal of Molecular Sciences, 2019).

Common to all, as to type: cell-based, human
Experiment [1] concerns A549 cells. Put plainly: MTT cell viability assay, single drugs and combinations, CI scores. As for the experimental part:
(§1) Cell viability was assessed using the MTT colorimetric assay. Cells (1 × 10^3 cells/well) were seeded into 96-well plates and treated with the various concentrations of each compound or combination of two compounds. After five days of treatment, 10 μL MTT (0.5 mg/mL) was added, and further incubated for 3 h. After removal of the supernatant, the resultant pellet was dissolved in DMSO. The absorbance of the resultant formazan was measured at 540 nm using a plate reader (Multiskan EX; ThermoLabsystems, Waltham, MA, USA).
(§2) CI scores were calculated using the CompuSyn software by Chou (CompuSyn Inc., Paramus, NJ) based on cell viability after treatment with single- and paired-drug concentrations. The CI equation for two drugs was used: CI=(D)A/(Dx)A+(D)B/(Dx)B where (Dx)A is the concentration of drug A alone that inhibits x%, (Dx)B is the concentration of drug B alone that inhibits x%, (D)A or (D)B is the portion of drug A or drug B in the combination (D)A + (D)B that inhibits x%.
A general note: Tetrazolium assays rely on reduction of a dye to a coloured formazan, in cell work by metabolically active cells.

The subject of experiment [2] is H1299 cells. Described as above. On the procedure: as §1, §2
For experiment [3], the system named is BEAS2B cells. Description: MTT cell viability assay. The following applies: BEAS2B normal bronchial epithelial cells, five days. As for the experimental part:
as §1

Experiment [4] concerns CCD18-Lu cells. Description: MTT cell viability assay. As to conditions: CCD18-Lu lung fibroblast cells, five days. As for the experimental part: as §1
The test system of experiment [5] is H460 cells. Put plainly: MTT cell viability assay. The following applies: five days. As for the experimental part: as §1
In experiment [6] the test system is A549 cells. Put plainly: qPCR of DNA damage repair genes and STAT5 mRNA. As to conditions: 24 h. From the text: (§3) RNA was extracted using TRIzol® RNA isolation reagent (ThermoFisher Scientific). RNA was reverse-transcribed into cDNA using the M-MLV reverse transcriptase (Enzynomics, Daejeon, Korea) and RNase inhibitor (Promega, Madison, WI, USA). The sequence of the primers targeting human BRCA1, BRCA2, RAD51, BARD1, XRCC6, and XRCC5 are as follows: BRCA1 sense 5′-[…]-3′, BRCA1 antisense 5′-[…]-3′, BRCA2 sense 5′-[…]-3′, BRCA2 antisense 5′-[…]-3′, RAD51 sense 5′-[…]-3′, RAD51 antisense 5′-[…]-3′, BARD1 sense 5′-[…]-3′, BARD1 antisense 5′-[…]-3′, XRCC6 sense 5′-[…]-3′, XRCC6 antisense 5′-[…]-3′, XRCC5 sense 5′-[…]-3′,and XRCC5 antisense 5′-[…]-3′. β-actin was used as a housekeeping gene for normalization. The cDNA was quantified using real-time PCR with SYBR Green/fluorescein qPCR master mix (ThermoScientific, Carlsbad, CA, USA) on a Lightcycler 96 system (Roche Diagnostics, Mannheim, Germany) according to the manufacturer’s protocol.
In general terms: Quantitative PCR measures a nucleic acid by following its amplification.

For experiment [7], the system named is H1299 cells. Put plainly: qPCR of DNA damage repair genes and STAT5 mRNA. As to conditions: 24 h.
Source text: as §3

For the compound `CC(C)(C)c1cc(NC(=O)Nc2ccc(-c3cn4c(n3)sc3cc(OCCN5CCOCC5)ccc34)cc2)no1` [quizartinib, reference compound], the viability at 0.16 µM in experiment [1] (Homo sapiens, 120 h, Olaparib 0, Quizartinib 0.16 μM, 5 days, panel B, read-out: Relative viability) worked out at 93.1%; in experiment [2] (Homo sapiens, NCI-H1299, 120 h, Olaparib 0, Quizartinib 0.16 μM, 5 days, panel B, read-out: Relative viability), 104%. Moreover, the viability at 0.32 µM was found to be 91.8% in experiment [1] (Homo sapiens, 120 h, Olaparib 0, Quizartinib 0.32 μM, 5 days, panel B, read-out: Relative viability) and 105% in experiment [2] (Homo sapiens, NCI-H1299, 120 h, Olaparib 0, Quizartinib 0.32 μM, 5 days, panel B, read-out: Relative viability). Also, the viability at 0.63 µM was found to be 93.9% in experiment [1] (Homo sapiens, 120 h, Olaparib 0, Quizartinib 0.63 μM, 5 days, panel B, read-out: Relative viability) and 106% in experiment [2] (Homo sapiens, NCI-H1299, 120 h, Olaparib 0, Quizartinib 0.63 μM, 5 days, panel B, read-out: Relative viability). In addition, the viability at 1.25 µM in experiment [1] (Homo sapiens, 120 h, Olaparib 0, Quizartinib 1.25 μM, 5 days, panel B, read-out: Relative viability) came out at 92.6%; in experiment [2] (Homo sapiens, NCI-H1299, 120 h, Olaparib 0, Quizartinib 1.25 μM, 5 days, panel B, read-out: Relative viability), 92.7%. For the same compound, the viability at 2.5 µM in experiment [1] (Homo sapiens, 120 h, Olaparib 0, Quizartinib 2.50 μM, 5 days, panel B, read-out: Relative viability) was 87.5%; in experiment [2] (Homo sapiens, NCI-H1299, 120 h, Olaparib 0, Quizartinib 2.50 μM, 5 days, panel B, read-out: Relative viability), 87.3%. The viability at 5 µM turned out to be 77.8% in experiment [1] (Homo sapiens, 120 h, Olaparib 0, Quizartinib 5.00 μM, 5 days, panel B, read-out: Relative viability) and 65.8% in experiment [2] (Homo sapiens, NCI-H1299, 120 h, Olaparib 0, Quizartinib 5.00 μM, 5 days, panel B, read-out: Relative viability). The viability at 10 µM amounted to 64.6% in experiment [1] (Homo sapiens, 120 h, Olaparib 0, Quizartinib 10.00 μM, 5 days, panel B, read-out: Relative viability) and 32.1% in experiment [2] (Homo sapiens, NCI-H1299, 120 h, Olaparib 0, Quizartinib 10.00 μM, 5 days, panel B, read-out: Relative viability). Also, the “Growth inhibition” value in experiment [1] (MTT, five days) is reported as “slightly inhibited the proliferation”; in experiment [2] (MTT, five days), “slightly inhibited the proliferation”; in experiment [3], “slightly inhibited the proliferation”; in experiment [4] it was “slightly inhibited the proliferation”; in experiment [5] it was “slightly inhibited the proliferation”. Also, the “Expression level of STAT5 mRNA” value in experiment [6] and in experiment [7] was “decreased the expression” each time. In addition, the “mRNA levels of HR (BRCA1, BRCA2, BARD1, RAD51) and NHEJ (XRCC5, XRCC6) genes” value in experiment [6] and in experiment [7] was “decreased the expression” throughout.
